From publication PMC9572521, “Synthesis, Docking Studies and Pharmacological Evaluation of Serotoninergic Ligands Containing a 5-Norbornene-2-Carboxamide Nucleus” (Molecules, 2022) come the findings set out here.

Data set [1] deals with T1, 5-HT1A receptor (Rattus norvegicus, UniProt P19327).
T1 construct: 15 μg/mL of hippocampus homogenate was incubated in triplicate with 0.8 nM; from tissue; host or cells: rat hippocampus homogenate
T1 sequence (P19327 1-422): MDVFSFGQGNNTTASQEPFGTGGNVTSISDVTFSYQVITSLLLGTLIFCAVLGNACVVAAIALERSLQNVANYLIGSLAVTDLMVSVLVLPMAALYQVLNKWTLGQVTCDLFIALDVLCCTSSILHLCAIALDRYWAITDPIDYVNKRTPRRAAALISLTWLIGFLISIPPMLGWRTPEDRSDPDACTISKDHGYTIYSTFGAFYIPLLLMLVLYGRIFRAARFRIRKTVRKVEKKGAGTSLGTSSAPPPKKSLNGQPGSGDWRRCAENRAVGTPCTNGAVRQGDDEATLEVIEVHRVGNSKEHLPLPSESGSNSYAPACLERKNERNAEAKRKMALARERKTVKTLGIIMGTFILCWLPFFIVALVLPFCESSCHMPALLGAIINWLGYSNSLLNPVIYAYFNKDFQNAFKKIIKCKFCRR
Description: Functional 5-HT1A receptor [35S]GTPγS assay (agonist mode).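 Note: male Sprague-Dawley rat hippocampal membranes incubated 90 min at 37 °C, bound label counted by scintillation after filtration, non-specific binding defined with 100 µM unlabeled GTPγS, one-site curve fit.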 The data set is classed as biochemical. As to conditions: [35S]GTPγS, rat hippocampus homogenate.

In data set [2] the test system is mice. Description: Chimney test (motor coordination). The class given is in vivo, mouse. The conditions noted are these: 60 min before the test. As for the experimental part: The experiments were carried out, in the Experimental Medicine Center of Medical University of Lublin, on six-week-old naive male Swiss mice, weighing 24–30 g. The mice were housed in cages, five individuals per cage in an environmentally controlled rooms (ambient temperature 22 ± 1 °C; relative humidity 50–60%; 12 h light/dark cycle, lights on at 8:00). Standard laboratory food(LSM-Agropol-Motycz, Lublin, Poland) and filtered water were available ad libitum. All the experimental procedures were carried out, according to the National Institute of Health Guidelines for the Care and Use of Laboratory Animals and to the European Community Council Directive for the Care and Use of Laboratory Animals of 22 September 2010 (2010/63/EU) and approved by the Local Ethics Committee for Animal Experimentation in Lublin. The investigated compounds (Norbo-4, Norbo-8, Norbo-10, Norbo-14, Norbo-18 and Norbo-20) in all tests were administered intraperitoneally (i.p.), dissolved in dimethyl sulfoxide (DMSO, final concentration of 0.1%) and then diluted by aqueous solution of 0.5% methylcellulose (tylose) and injected 60 min before the tests. […] All compounds were given in a volume of 10 mL/kg to mice. The control animals received an equivalent volume of the solvent at the respective time before the tests. All the experiments were conducted in the light phase between 09.00 a.m. and 14.00 p.m. The experiments were performed by an observer unaware of the treatment administered. The effects of investigated compounds on motor coordination were evaluated in the rota-rod and chimney tests. In the first test, motor impairments were measured, defined as the inability to keep balance on a rotating rod (at constant speed of 18 rpm) for 1 min. In the second test, motor impairments were assessed by mouse inability to climb up the tube backwards (3 cm in inner diameter, 25 cm long) within 60 s. Before the tests, the animals were trained once a day for 3 days. The animals able to stay on the rotating rod or to leave the chimney for 60 s were approved for experiments.

For data set [3], the system named is mice. Put plainly: Spontaneous locomotor activity. The class given is in vivo, mouse.
In data set [4] the target is T2, human 5-HT2C receptor (Homo sapiens, UniProt P28335).
T2 sequence (P28335 33-458): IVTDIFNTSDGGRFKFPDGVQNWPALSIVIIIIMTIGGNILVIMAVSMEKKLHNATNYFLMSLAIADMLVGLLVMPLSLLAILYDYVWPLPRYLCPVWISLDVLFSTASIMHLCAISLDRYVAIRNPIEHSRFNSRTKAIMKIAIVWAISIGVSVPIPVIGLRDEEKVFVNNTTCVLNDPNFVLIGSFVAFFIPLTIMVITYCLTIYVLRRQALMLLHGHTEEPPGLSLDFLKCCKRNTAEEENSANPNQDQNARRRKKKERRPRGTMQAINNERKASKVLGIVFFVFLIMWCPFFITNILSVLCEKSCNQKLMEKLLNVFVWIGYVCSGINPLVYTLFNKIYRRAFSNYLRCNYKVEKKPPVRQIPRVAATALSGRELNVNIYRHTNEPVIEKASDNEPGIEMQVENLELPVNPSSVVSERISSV
Description: 5-HT2C competition binding assay ([3H]mesulergine, transfected cell membranes). The conditions noted are these: [3H]mesulergine, human 5-HT2C membranes; read-out: 5-HT2C Ki (95% CI).

Data set [5] concerns the target T3, D2 receptor (Rattus norvegicus, UniProt P61169).
T3 construct: 15μg/mL of striatal homogenate was incubated in triplicate; from tissue; host or cells: rat striatum homogenate
Put plainly: Functional D2 receptor [35S]GTPγS assay (antagonist mode vs dopamine; basal for agonism).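 Note: [35S]GTPγS binding counted by scintillation after 60 min at 30 °C, nonspecific binding defined with 100 µM unlabeled GTPγS, inhibition curves fitted by one-site nonlinear regression.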 The class given is biochemical. The conditions noted are these: against 40 µM dopamine, rat striatal homogenate; read-out: D2 receptor antagonistic activity IC50 (95% CI). For orientation: GTPγS resists hydrolysis and so accumulates on activated G proteins.

“Also recorded” adds a separate entry of the source.

T3 sequence (P61169 whole entry): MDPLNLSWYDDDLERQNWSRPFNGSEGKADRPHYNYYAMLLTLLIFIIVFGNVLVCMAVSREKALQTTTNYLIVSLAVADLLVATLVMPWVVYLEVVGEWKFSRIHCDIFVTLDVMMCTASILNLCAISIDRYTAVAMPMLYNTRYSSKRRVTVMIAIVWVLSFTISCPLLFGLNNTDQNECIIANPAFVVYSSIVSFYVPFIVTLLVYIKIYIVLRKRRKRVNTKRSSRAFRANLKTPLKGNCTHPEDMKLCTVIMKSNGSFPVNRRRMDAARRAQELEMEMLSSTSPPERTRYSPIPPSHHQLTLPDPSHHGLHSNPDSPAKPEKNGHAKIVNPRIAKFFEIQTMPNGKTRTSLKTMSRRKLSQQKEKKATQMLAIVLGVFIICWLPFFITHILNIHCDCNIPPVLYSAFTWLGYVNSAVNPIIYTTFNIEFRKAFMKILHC

Usually EC50 stands for the midpoint of the concentration-response curve. The term Ki denotes a measure of affinity in units of concentration, obtained from inhibition or displacement. In general, IC50 refers to the concentration needed to halve the response being measured. Turning to `Cc1cccc(N2CCN(CCCNC(=O)C3CC4C=CC3C4)CC2)c1C` (stereo not drawn) [Norbo-4, endo-N-(3-(4-(2,3-dimethylphenyl)piperazin-1-yl)propyl)bicyclo[2.2.1]hept-5-ene-2-carboxamide], in data set [1], the “5-HT1A Receptor G-Protein Stimulation Emax (%) ± SEM” value is on record as 181 ± 2.4 %. Besides, the EC50 in data set [1] (read-out: 5-HT1A Receptor G-Protein Stimulation EC50 (95% CI)) is 181 nM. For the same molecule, the time in chimney result in data set [2] (15 mg/kg i.p.) is “significant increase of time in chimney”; in data set [2] (30 mg/kg i.p.), “significant increase of time in chimney; also recorded: disturbed the behavior of mice”. Further, the spontaneous locomotor activity entry in data set [3] (15 mg/kg i.p., after 6 min of observation) is given as “significant decrease in locomotor activity; also recorded: induced the same effect”; in data set [3] (15 mg/kg i.p., after 20 min of observation) it was “significant decrease in locomotor activity; also recorded: induced the same effect”; in data set [3] (30 mg/kg i.p., after 6 min of observation), “significant decrease in locomotor activity”; in data set [3] (30 mg/kg i.p., after 20 min of observation), “significant decrease in locomotor activity”. Also, the inhibitory constant (Ki) in data set [4] came to 2090 nM. Also, the IC50 in data set [5] was 33.1 µM.
